{
  "source": "paper PMC7901699",
  "about": "“Challenging inflammatory process at molecular, cellular and in vivo levels via some new pyrazolyl thiazolones” (Journal of Enzyme Inhibition and Medicinal Chemistry, 2021)",
  "key": {"15-LOX": {"target": "T1, 15-LOX (Glycine max, UniProt P08170)", "T1 construct": "purchased Cayman chemicals 760700", "T1 sequence (P08170 1-839)": "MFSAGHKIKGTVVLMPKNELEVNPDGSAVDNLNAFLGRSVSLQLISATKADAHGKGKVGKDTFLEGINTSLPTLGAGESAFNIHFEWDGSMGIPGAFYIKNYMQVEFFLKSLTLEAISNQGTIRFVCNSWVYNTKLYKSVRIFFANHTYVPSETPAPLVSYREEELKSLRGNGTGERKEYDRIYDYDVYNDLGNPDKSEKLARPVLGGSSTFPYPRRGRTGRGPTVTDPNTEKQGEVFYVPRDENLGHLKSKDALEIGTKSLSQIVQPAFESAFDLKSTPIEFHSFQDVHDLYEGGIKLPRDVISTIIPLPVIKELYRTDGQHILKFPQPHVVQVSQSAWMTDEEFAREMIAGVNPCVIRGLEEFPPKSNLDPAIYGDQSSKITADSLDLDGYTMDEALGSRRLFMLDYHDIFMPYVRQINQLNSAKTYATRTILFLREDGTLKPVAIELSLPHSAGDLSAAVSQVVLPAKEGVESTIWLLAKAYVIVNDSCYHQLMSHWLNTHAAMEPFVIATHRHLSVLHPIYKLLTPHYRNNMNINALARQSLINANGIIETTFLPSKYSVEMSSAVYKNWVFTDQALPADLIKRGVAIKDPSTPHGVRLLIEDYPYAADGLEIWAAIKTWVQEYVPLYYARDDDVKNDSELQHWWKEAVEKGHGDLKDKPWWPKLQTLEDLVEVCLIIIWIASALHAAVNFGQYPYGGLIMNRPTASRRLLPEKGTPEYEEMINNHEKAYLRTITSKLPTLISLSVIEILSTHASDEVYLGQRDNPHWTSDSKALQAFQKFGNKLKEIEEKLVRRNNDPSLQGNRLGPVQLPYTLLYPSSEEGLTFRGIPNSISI", "experiment": "In vitro 15-LOX inhibition assay (lipoxygenase inhibitor screening kit, Cayman)", "format": "biochemical", "conditions": "for IC50: mean of three determinations", "experimental": "(§1) Both assays were carried out in compliance with the manufacturer’s instructions and in accordance to prior studies[29]^,[33].\n(§2) IC50 values (μM) and selectivity indices (SI) were calculated."}, "ovine COX-1": {"target": "T2, ovine COX-1 (Ovis aries, UniProt P05979)", "T2 construct": "purchased Cayman Chemicals Inc. 560131", "T2 sequence (P05979 25-600)": "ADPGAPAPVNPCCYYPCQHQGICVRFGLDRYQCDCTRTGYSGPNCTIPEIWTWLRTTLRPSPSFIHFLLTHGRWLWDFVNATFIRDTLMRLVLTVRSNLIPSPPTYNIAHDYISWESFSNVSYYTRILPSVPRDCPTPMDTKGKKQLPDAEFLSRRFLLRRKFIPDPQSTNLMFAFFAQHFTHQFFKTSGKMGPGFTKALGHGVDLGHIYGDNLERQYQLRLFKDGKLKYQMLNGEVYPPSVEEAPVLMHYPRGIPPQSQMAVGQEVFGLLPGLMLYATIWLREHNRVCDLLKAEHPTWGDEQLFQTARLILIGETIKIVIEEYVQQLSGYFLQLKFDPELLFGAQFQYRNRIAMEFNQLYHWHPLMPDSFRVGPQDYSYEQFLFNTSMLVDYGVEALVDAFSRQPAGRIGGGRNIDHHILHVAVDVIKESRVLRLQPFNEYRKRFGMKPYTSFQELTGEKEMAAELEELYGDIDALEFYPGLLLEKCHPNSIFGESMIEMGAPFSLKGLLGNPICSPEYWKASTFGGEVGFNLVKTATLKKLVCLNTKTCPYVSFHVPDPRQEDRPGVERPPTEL", "experiment": "In vitro COX-1 inhibition assay (colorimetric COX inhibitor screening kit, Cayman)", "format": "biochemical", "conditions": "mean of three determinations", "experimental": "as §1, §2"}, "human recombinant COX-2": {"target": "T3, human recombinant COX-2 (Homo sapiens, UniProt P35354)", "T3 construct": "purchased Cayman Chemicals Inc. 560131", "T3 sequence (P35354 18-604)": "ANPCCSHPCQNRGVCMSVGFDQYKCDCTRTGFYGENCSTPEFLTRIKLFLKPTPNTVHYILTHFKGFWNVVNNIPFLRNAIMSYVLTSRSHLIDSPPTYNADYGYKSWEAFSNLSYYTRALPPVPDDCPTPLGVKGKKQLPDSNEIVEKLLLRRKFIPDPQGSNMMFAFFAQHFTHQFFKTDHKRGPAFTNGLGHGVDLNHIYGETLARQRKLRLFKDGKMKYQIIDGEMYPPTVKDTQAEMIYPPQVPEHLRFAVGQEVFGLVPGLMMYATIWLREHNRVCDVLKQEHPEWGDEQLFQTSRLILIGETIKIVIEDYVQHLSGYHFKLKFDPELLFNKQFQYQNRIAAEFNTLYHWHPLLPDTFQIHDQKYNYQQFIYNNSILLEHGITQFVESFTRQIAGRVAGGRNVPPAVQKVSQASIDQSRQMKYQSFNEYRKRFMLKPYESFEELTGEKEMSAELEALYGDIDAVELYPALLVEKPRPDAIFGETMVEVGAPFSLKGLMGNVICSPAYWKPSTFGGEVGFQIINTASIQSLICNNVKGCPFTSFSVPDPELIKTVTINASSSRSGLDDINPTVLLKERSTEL", "experiment": "In vitro COX-2 inhibition assay (colorimetric COX inhibitor screening kit, Cayman)", "format": "biochemical", "conditions": "for SI (COX-1/ COX-2): IC50 (COX-1)/IC50 (COX-2); for IC50: mean of three determinations", "experimental": "as §1, §2"}, "[1]": {"tested_on": "formalin-induced rat paw oedema", "experiment": "Formalin-induced paw oedema test (acute inflammation model)", "format": "in vivo, Wistar rats", "conditions": "oral 5 mg/kg once daily for seven days; oedema 4 h after formalin; vs diclofenac sodium and celecoxib 5 mg/kg", "experimental": "A freshly prepared 5% formalin solution (prepared from 37% formaldehyde and saline (Merck, Germany)) was used as a phlogistic agent. Test and reference compounds (5 mg/kg body weight) were dissolved in DMSO and given orally with gastric gavage once per day for seven consecutive days, whereas DMSO was administered to the control group. On the 8th day, the initial paw volume was determined by a Vernier calliper. Then, a subcutaneous injection of 40 μl formalin was introduced into the right hind paw of all groups under light ether anaesthesia. The paw volume was measured 4 h after the formalin injection and the oedema volume was calculated by the difference in paw volume before and 4 h after the formalin injection. The percentage inhibition of oedema (or % protection against inflammation) was calculated for each compound as previously reported[34]^,[35]."}, "rat stomach": {"tested_on": "rat stomach", "experiment": "Gastric ulcerogenic activity and histopathological examination", "conditions": "stomach removed on 8th day of administration, 5 mg/kg oral", "method": "The same compounds were tested for chronic gastric ulcerative symptoms[37]^,[38]. Rat stomach was removed on the 8th day of drug administration. Stomach was opened through the greater curvature, washed and kept in saline. Gross examination was carried out for any signs of haemorrhage, hyperaemia, haemorrhagic erosion or ulcers. Moreover, histopathological inspection was conducted to verify the extent of inflammatory reaction in mucosal layers[28]^,[38]."}, "[2]": {"tested_on": "cotton pellet-induced granuloma", "experiment": "Cotton pellet-induced granuloma assay (chronic inflammation model)", "conditions": "oral 5 mg/kg daily, pellets excised on 8th day, vs diclofenac sodium and celecoxib"}},
  "note": "“Also recorded” adds a separate entry of the source.",
  "data": [
    {"molecule": "Cc1nn(-c2ccccc2)c(Cl)c1/C=C1\\SC(N2CCCCC2)=NC1=O", "note": "[Compound 1, (Z)-5-((5-chloro-3-methyl-1-phenyl-1H-pyrazol-4-yl)methylene)-2-(piperidin-1-yl)thiazol-4(5H)-one]", "values": [
      {"measurement": "IC50", "setting": "15-LOX", "result": 1.96, "unit": "µM"},
      {"measurement": "15-LOX inhibition, times the activity of quercetin", "setting": "15-LOX; relative to quercetin", "result": 1.7, "unit": "times"},
      {"measurement": "IC50", "setting": "ovine COX-1", "result": 6.56, "unit": "µM"},
      {"measurement": "SI (COX-1/ COX-2)", "setting": "human recombinant COX-2", "result": 59},
      {"measurement": "IC50", "setting": "human recombinant COX-2", "result": 0.11, "unit": "µM"}
    ]},
    {"molecule": "Cc1nn(-c2ccccc2)c(Cl)c1/C=C1\\SC(N2CCOCC2)=NC1=O", "note": "[Compound 2, (Z)-5-((5-chloro-3-methyl-1-phenyl-1H-pyrazol-4-yl)methylene)-2-morpholinothiazol-4(5H)-one]", "values": [
      {"measurement": "Inhibition of formalin-induced rat paw oedema (in words)", "setting": "[1]", "result": "as effective as either diclofenac or celecoxib"},
      {"measurement": "IC50", "setting": "15-LOX", "result": 2.42, "unit": "µM"},
      {"measurement": "IC50", "setting": "ovine COX-1", "result": 8.14, "unit": "µM"},
      {"measurement": "SI (COX-1/ COX-2)", "setting": "human recombinant COX-2", "result": 90},
      {"measurement": "IC50", "setting": "human recombinant COX-2", "result": 0.09, "unit": "µM"},
      {"measurement": "Gross observation of isolated rat stomachs", "setting": "rat stomach; 5 mg/kg", "result": "normal texture"},
      {"measurement": "Inhibition of cotton pellet granuloma weight (in words)", "setting": "[2]; 5 mg/kg", "result": "superior anti-inflammatory activity, when compared to diclofenac and celecoxib; also recorded: increased inhibition of granuloma weight in comparison to both celecoxib and diclofenac"}
    ]},
    {"molecule": "O=C1N=C(N2CCCCC2)S/C1=C\\c1cn(-c2ccccc2)nc1-c1ccccc1", "note": "[Compound 3, (Z)-5-((1,3-diphenyl-1H-pyrazol-4-yl)methylene)-2-(piperidin-1-yl)thiazol-4(5H)-one]", "values": [
      {"measurement": "IC50", "setting": "15-LOX", "result": 2.54, "unit": "µM"},
      {"measurement": "IC50", "setting": "ovine COX-1", "result": 7.86, "unit": "µM"},
      {"measurement": "SI (COX-1/ COX-2)", "setting": "human recombinant COX-2", "result": 41},
      {"measurement": "IC50", "setting": "human recombinant COX-2", "result": 0.19, "unit": "µM"}
    ]},
    {"molecule": "Cc1ccc(-c2nn(-c3ccccc3)cc2/C=C2\\SC(N3CCCCC3)=NC2=O)cc1", "note": "[Compound 5, (Z)-5-((1-phenyl-3-(p-tolyl)-1H-pyrazol-4-yl)methylene)-2-(piperidin-1-yl)thiazol-4(5H)-one]", "values": [
      {"measurement": "IC50", "setting": "15-LOX", "result": 4.23, "unit": "µM"},
      {"measurement": "IC50", "setting": "ovine COX-1", "result": 9.23, "unit": "µM"},
      {"measurement": "SI (COX-1/ COX-2)", "setting": "human recombinant COX-2", "result": 27},
      {"measurement": "IC50", "setting": "human recombinant COX-2", "result": 0.34, "unit": "µM"}
    ]},
    {"molecule": "Cc1ccc(-c2nn(-c3ccccc3)cc2/C=C2\\SC(N3CCOCC3)=NC2=O)cc1", "note": "[Compound 6, (Z)-2-morpholino-5-((1-phenyl-3-(p-tolyl)-1H-pyrazol-4-yl)methylene)thiazol-4(5H)-one]", "values": [
      {"measurement": "IC50", "setting": "15-LOX", "result": 2.85, "unit": "µM"},
      {"measurement": "IC50", "setting": "ovine COX-1", "result": 12.5, "unit": "µM"},
      {"measurement": "SI (COX-1/ COX-2)", "setting": "human recombinant COX-2", "result": 69},
      {"measurement": "IC50", "setting": "human recombinant COX-2", "result": 0.18, "unit": "µM"}
    ]},
    {"molecule": "O=C1N=C(N2CCCCC2)S/C1=C\\c1cn(-c2ccccc2)nc1-c1ccc(Br)cc1", "note": "[Compound 9, (Z)-5-((3-(4-bromophenyl)-1-phenyl-1H-pyrazol-4-yl)methylene)-2-(piperidin-1-yl)thiazol-4(5H)-one]", "values": [
      {"measurement": "Inhibition of formalin-induced rat paw oedema (in words)", "setting": "[1]", "result": "as effective as either diclofenac or celecoxib"},
      {"measurement": "IC50", "setting": "15-LOX", "result": 5.64, "unit": "µM"},
      {"measurement": "15-LOX inhibitory activity as % of the activity of quercetin", "setting": "15-LOX; relative to quercetin", "result": 59, "unit": "%"},
      {"measurement": "IC50", "setting": "ovine COX-1", "result": 14, "unit": "µM"},
      {"measurement": "SI (COX-1/ COX-2)", "setting": "human recombinant COX-2", "result": 107},
      {"measurement": "IC50", "setting": "human recombinant COX-2", "result": 0.13, "unit": "µM"},
      {"measurement": "Inhibition of cotton pellet granuloma weight (in words)", "setting": "[2]", "result": "only superior to celecoxib"}
    ]},
    {"molecule": "O=C1N=C(N2CCOCC2)S/C1=C\\c1cn(-c2ccccc2)nc1-c1ccc(Br)cc1", "note": "[Compound 10, (Z)-5-((3-(4-bromophenyl)-1-phenyl-1H-pyrazol-4-yl)methylene)-2-morpholinothiazol-4(5H)-one]", "values": [
      {"measurement": "Inhibition of formalin-induced rat paw oedema (in words)", "setting": "[1]", "result": "as effective as either diclofenac or celecoxib"},
      {"measurement": "IC50", "setting": "15-LOX", "result": 4.52, "unit": "µM"},
      {"measurement": "15-LOX inhibitory activity as % of the activity of quercetin", "setting": "15-LOX; relative to quercetin", "result": 74, "unit": "%"},
      {"measurement": "IC50", "setting": "ovine COX-1", "result": 11.3, "unit": "µM"},
      {"measurement": "SI (COX-1/ COX-2)", "setting": "human recombinant COX-2", "result": 103},
      {"measurement": "IC50", "setting": "human recombinant COX-2", "result": 0.11, "unit": "µM"},
      {"measurement": "Gross observation of isolated rat stomachs", "setting": "rat stomach", "result": "variable levels of hyperaemia without gross ulceration"},
      {"measurement": "Histopathological examination of stomach gastric layers", "setting": "rat stomach; H&E, 5 mg/kg", "result": "both edoema and inflammatory changes in stomach mucosal surface"},
      {"measurement": "Inhibition of cotton pellet granuloma weight (in words)", "setting": "[2]", "result": "only superior to celecoxib"}
    ]},
    {"molecule": "Cc1ccc(Cl)c(Nc2ccccc2C(=O)O)c1Cl", "note": "[Meclofenamate Na, reference compound]", "values": [
      {"measurement": "IC50", "setting": "15-LOX", "result": 5.64, "unit": "µM"}
    ]}
  ]
}
